Laboratory results from patent publication EP0230922A2, “Use of peptides in the preparation of agents for the treatment of coronary diseases or organic brain syndrome” (BOEHRINGER INGELHEIM KG, priority 1986, dated 1987).
“And” between values parts separate entries of the source, which are not always exact repeats. Equal values may be shown once.

Experiments:
Mäuse (ChbI:NMRI) = assay: Scopolamine test: passive avoidance in mice; format: in vivo; settings: per os, scopolamine hydrobromide 0,6 mg/kg s.c., test 1 h after dosing
Excerpt: Durch den cholinerg-muskarinen Antagonisten Scopolamin wird bei Mensch und Tier eine vorübergehende Störung des übergangs von Inhalten des Kurzzeitgedächtnisses in das Langzeitgedächtnis hervorgerufen. Die auch klinisch bei gesunden Probanden durch Scopolamin auslösbaren, mnestischen Störungen sind in ihrer Ausprägung den psychopathologischen Veränderungen bei Patienten mit organischem Hirnsyndrom ähnlich (Drachman & Leavitt, 1974).
Der Scopolamin-Test wird an Gruppen von jeweils 10 männlichen, nicht nüchternen, naiven Mäusen (ChbI:NMRI: Körpergewicht 35 g) mit Hilfe einer passiven Vermeidereaktion durchgeführt. Das Testgerät besteht aus einer Skinner Box (30 cm x 26 cm x 29 cm) mit einem elektrifizierbaren Gitterboden und einer Plastikplattform (5 cm x 5 cm) an einer Seitenwand. Die Tiere werden einzeln in die Skinner Box gesetzt. Nach einer Orientierungsperiode von 30 sec werden kurze, unterbrochene Stromstöße von ca. 0,8 mA so oft an den Gitterboden der Box gelegt, bis das Tier gelernt hat, daß das Aufsuchen und Verweilen auf der Plastikplattform vor dem Stromstoß Sicherheit gewährt. Tiere, welche dies innerhalb von 120 sec nicht lernen, werden nicht weiter verwendet. Die anderen Mäuse werden unmittelbar nach Erlernen der passiven Vermeidereaktion in drei Gruppen (10 Tiere pro Gruppe) eingeteilt. Eine Gruppe erhält Scopolaminhydrobromid (0,6 mg/kg s.c.) und oral Vehikel (0,5 % Tylose); die zweite Gruppe Scopolaminhydrobromid sowie die zu testende Substanz per os in 0,5 % Tylose und die dritte Gruppe lediglich 0,5 % Tylose p.o.. Eine Stunde nach Applikation wird jedes Tier einzeln auf die Plattform gesetzt, um das Erinnerungsvermögen an die erlernte Vermeidereaktion zu prüfen. Das Kriterium besteht in der Bestimmung, ob die Maus während mindestens 60 sec auf der Plattform verbleibt (Ja-Antwort) oder nicht (Nein-Antwort).
Etwa 75 % der Tiere, welche ausschließlich mit 0,5 % Tylose behandelt wurden, verbleiben bei der abschließenden Prüfung länger als 60 sec auf der Plattform: ein Ergebnis, welches als Ausdruck des guten Erinnerungsvermögens an die erlernte Erfahrung gedeutet werden kann. Nach Gabe von Scopolamin und Tylose verbleiben durchschnittlich etwa 25 % der Tiere auf der Plattform; dies zeigt die erhebliche Beeinträchtigung des Erinnerungsvermögens nach Gabe von Scopolamin.

Mäuse (ChbI: NMRI) = assay: Hypoxia tolerance: survival of mice in a closed chamber (96,5 % N2, 3,5 % O2); format: in vivo; settings: given 24 h, 16 h and 30 min before test, 10 mice per group
Excerpt: 1. HYPOXIE-TOLERANZ, d.h. bei der Prüfung der überlebensfähigkeit von Tieren in einer geschlossenen Kammer.
Eine aus Plexiglas hergestellte, durchsichtige, mit einem Deckel verschließbare Kammer (28 cm x 40 cm x 20 cm; Gesamtvolumen 22,4 1) ist in 2 Hälften geteilt, in die je 10 männliche oder weibliche Mäuse (ChbI: NMRI; 20-25 g Körpergewicht) gesetzt werden. Die Kammer wird mit einem Gasgemisch, bestehend aus 96,5 % N2 und 3,5 % 02 durchströmt; das Strömungsvolumen beträgt 12 1/min.
Eine der beiden Gruppen erhält Prüfsubstanzen, die andere das Vehikel (0,5 % Tylose), die 24 h, 16 h und 30 min vor dem Test oral appliziert werden. Etwa 6-7 min nach Beginn der Durchströmung der Kammer sterben die ersten Tiere. Das Experiment wird beendet, wenn in der Kontrollgruppe nur noch 2-3 Tiere Zeichen von Leben zeigen.
Ohne die Tiere zu berühren, wird 15 min gewartet und dann die Zahl der überlebenden Tiere in den beiden Hälften der Kammern endgültig festgestellt. Die statistische Signifikanz der Differenz der überlebenden Tiere in beiden Gruppen kann mit dem "Exakten Test von Fisher für 2 x 2 Feldertafeln" festgestellt werden.

SMILES | %der Tiere bei welcher die Scopol-amin-Wirkung anta-gonisiert wurde (Mäuse (ChbI:NMRI); Dosis 5 (unit not given)) | %der Tiere bei welcher die Scopol-amin-Wirkung anta-gonisiert wurde (Mäuse (ChbI:NMRI); Dosis 10 (unit not given)) | %der Tiere bei welcher die Scopol-amin-Wirkung anta-gonisiert wurde (Mäuse (ChbI:NMRI); Dosis 20 (unit not given)) [%] | %der Tiere bei welcher die Scopol-amin-Wirkung anta-gonisiert wurde (Mäuse (ChbI:NMRI); Dosis 30 (unit not given)) [%] | Behandelte Tiere Überlebende % (Mäuse (ChbI: NMRI); 10 mg/kg p.o.) [%] | Behandelte Tiere Überlebende % (Mäuse (ChbI: NMRI); 30 mg/kg p.o.) [%] | %der Tiere bei welcher die Scopol-amin-Wirkung anta-gonisiert wurde (Mäuse (ChbI:NMRI); Dosis 1 (unit not given)) [%] | %der Tiere bei welcher die Scopol-amin-Wirkung anta-gonisiert wurde (Mäuse (ChbI:NMRI); Dosis 0,5 (unit not given)) [%] | Behandelte Tiere Überlebende % (Mäuse (ChbI: NMRI); 50 mg/kg p.o.)
C[C@H](NC(=O)[C@H](Cc1ccccc1)SCOC(=O)C(C)(C)C)C(=O)N1CCC[C@H]1C(=O)OCOC(=O)C(C)(C)C [Verbindung 1, N-[N-(3-Phenyl-2-S-pivaloyloxymethylmercapto-propanoyl)-S-alanyl]-S-prolin-pivaloyloxymethylester] | 80% and 40% | 40% and 30% | 40 | 40 | 100 | 80 |  |  | 
C[C@H](NC(=O)[C@H](Cc1ccccc1)SC(=O)c1ccccc1)C(=O)N1CCC[C@H]1C(=O)O [Verbindung 2, N-[N-(3-Phenyl-2-S-benzoylmercaptopropanoyl)-S-alanyl]-S-prolin] | 50% | 50% and 30% |  |  |  | 60 | 30 |  | 
CC(=O)S[C@@H](Cc1ccccc1)C(=O)N[C@@H](C)C(=O)N1CCC[C@H]1C(=O)OCOC(=O)C(C)(C)C [Verbindung 3, N-[N-(3-Phenyl-2-S-acetylmercaptopropanoyl)-S-alanyl]-S-prolin-pivaloyloxymethylester] | 40% | 40% and 80% |  |  | 50 | 30 | 60 | 40 | 80% and 100%
C[C@H](NC(=O)[C@@H](S)Cc1ccccc1)C(=O)N1CCC[C@H]1C(=O)OCOC(=O)C(C)(C)C [Verbindung 4, N-[N-(3-Phenyl-2-S-mercaptopropanoyl)-S-alanyl]-S-prolin-pivaloyloxymethylester] |  |  |  |  | 90 | 30 |  |  | 70% and 100%
